PMC11361989, “A simple HPLC–MS/MS method for the determination of polymyxin B in human plasma and its application in the pharmacokinetic study in elderly patients infected with multidrug-resistant Gram-negative bacteria” (Frontiers in Pharmacology, 2024)

Experiments:
[1] = Stability of PB1 and PB2 in human plasma under different storage conditions; conditions: human plasma, n = 3
Description: The stock solutions of the calibrators and quality control (QC) samples should be prepared separately in the same way. The PB stock solution for calibrators and QC samples was prepared in water (1% FA) at 400.48 μg/mL for PB1 and 40.84 μg/mL for PB2. Consequently, working solutions for construction of calibrators and QC were prepared by serially diluting the stock solution with a 1% aqueous solution of FA. The concentrations of the working solutions for calibrators were 10.01, 30.03, 50.05, 100.12, 150.18, and 200.24 μg/mL for PB1 and 1.02, 3.06, 5.10, 10.21, 15.31, and 20.42 μg/mL for PB2. The concentrations of working solutions for QCs were prepared at 20.02 μg/mL (LQC), 90.11 μg/mL (MQC), and 180.22 μg/mL (HQC) for PB1 and 2.04 μg/mL (LQC), 9.18 μg/mL (MQC), and 18.36 μg/mL (HQC) for PB2. The working solution of IS (10.00 μg/mL) was prepared using methanol. All the above solutions were stored at −70°C. The calibrators and QC samples were obtained by spiking 90 μL of blank plasma with 10 μL of working solution at the corresponding concentration. The standard curves were in the range of 1.00–20.02 μg/mL and 0.10–2.04 μg/mL for PB1 and PB2, respectively.
Typically, 100 μL of the plasma sample was mixed with 10 μL IS working solution, and then, 300 μL 0.1% FA in methanol was added to the sample for protein precipitation. The mixture was vortexed for 3 min and centrifuged in an Eppendorf 5415D microcentrifuge (Eppendorf, Hamburg, Germany) at 11,000 g rpm for 10 min. Subsequently, 200 μL of the supernatant was transferred into a clean polypropylene tube and diluted with 150 μL of 0.1% FA in water. The mixture solution was vortexed for 3 min and centrifuged at 11,000 rpm for 10 min using the same centrifuge. Finally, 200 μL of the supernatant was transferred into an injection bottle, and 10 μL was injected into the HPLC–MS/MS for analysis.
The stability of the working solutions of PB1 and PB2 was evaluated. The short-term stability and long-term stability of PB1 and PB2 in human plasma were evaluated under the following conditions: placed at room temperature or 4°C for 24 h, frozen and thawed three times, and stored at −70°C for 85 days. The stability evaluation was conducted for both LQC and HQC concentrations.

[2] = Stability of PB1 and PB2 in human whole blood at room temperature or 4°C; conditions: clinical TDM whole blood, plasma by HPLC-MS/MS
Description: Moreover, the stability of PB1 and PB2 in whole blood was determined using redundant TDM whole-blood samples. A clinical whole-blood sample was obtained and immediately divided into 10 aliquots and placed at room temperature (25°C) or 4°C. At the designated time point, one of the aliquots was removed and immediately centrifuged to obtain 100 μL of a plasma sample. Then, all plasma samples were stored at −70°C until further analysis. Two parallel samples were tested at each storage condition, and the results were expressed as the percentage ratios of PB1 or PB2 concentrations measured at different time points to the initial PB1 or PB2 concentration.

[3] = Stability of working solutions of PB1 and PB2; type: physicochemical; conditions: working solutions in 1% aqueous formic acid at LQC and HQC concentrations, stored at −70°C
Description: All the above solutions were stored at −70°C.

polymyxin B1 [PB1]
Stability in human plasma, RE ([1]; 4°C for 24 h, target PB1 2.00 / PB2 0.20 μg/mL (LQC)): +3.25%
Stability in human plasma, RE ([1]; 4°C for 24 h, target PB1 9.01 / PB2 0.92 μg/mL (MQC)): −7.38%
Stability in human plasma, RE ([1]; 4°C for 24 h, target PB1 18.02 / PB2 1.84 μg/mL (HQC)): −3.87%
Stability in human plasma, RE ([1]; room temp. for 24 h, target PB1 2.00 / PB2 0.20 μg/mL (LQC)): −11.99%
Stability in human plasma, RE ([1]; room temp. for 24 h, target PB1 9.01 / PB2 0.92 μg/mL (MQC)): +5.18%
Stability in human plasma, RE ([1]; room temp. for 24 h, target PB1 18.02 / PB2 1.84 μg/mL (HQC)): +6.19%
Stability in human plasma, RE ([1]; three freeze–thaw cycles, target PB1 2.00 / PB2 0.20 μg/mL (LQC)): −4.15%
Stability in human plasma, RE ([1]; three freeze–thaw cycles, target PB1 9.01 / PB2 0.92 μg/mL (MQC)): +3.09%
Stability in human plasma, RE ([1]; three freeze–thaw cycles, target PB1 18.02 / PB2 1.84 μg/mL (HQC)): +1.01%
Stability in human plasma, RE ([1]; −70°C for 85 days, target PB1 2.00 / PB2 0.20 μg/mL (LQC)): −2.50%
Stability in human plasma, RE ([1]; −70°C for 85 days, target PB1 9.01 / PB2 0.92 μg/mL (MQC)): +0.10%
Stability in human plasma, RE ([1]; −70°C for 85 days, target PB1 18.02 / PB2 1.84 μg/mL (HQC)): +1.95%
Concentration after storage in human blood ([2]; 4°C, 0 h (initial), parallel sample 1): 4690 ng/mL
Concentration after storage in human blood ([2]; 4°C, 0 h (initial), parallel sample 2): 4720 ng/mL
Concentration after storage in human blood ([2]; 4°C, 0.5 h, parallel sample 1): 4290 ng/mL
Concentration after storage in human blood ([2]; 4°C, 0.5 h, parallel sample 2): 4120 ng/mL
Concentration after storage in human blood ([2]; 4°C, 1 h, parallel sample 1): 4420 ng/mL
Concentration after storage in human blood ([2]; 4°C, 1 h, parallel sample 2): 4350 ng/mL
Concentration after storage in human blood ([2]; 4°C, 2 h, parallel sample 1): 5100 ng/mL
Concentration after storage in human blood ([2]; 4°C, 2 h, parallel sample 2): 4890 ng/mL
Concentration after storage in human blood ([2]; 4°C, 3 h, parallel sample 1): 5250 ng/mL
Concentration after storage in human blood ([2]; 4°C, 3 h, parallel sample 2): 5320 ng/mL
Concentration after storage in human blood ([2]; 4°C, 4 h, parallel sample 1): 5130 ng/mL
Concentration after storage in human blood ([2]; 4°C, 4 h, parallel sample 2): 4950 ng/mL
Concentration after storage in human blood ([2]; 4°C, 5 h, parallel sample 1): 4820 ng/mL
Concentration after storage in human blood ([2]; 4°C, 5 h, parallel sample 2): 4820 ng/mL
Concentration after storage in human blood ([2]; 4°C, 8 h, parallel sample 1): 4460 ng/mL
Concentration after storage in human blood ([2]; 4°C, 8 h, parallel sample 2): 4850 ng/mL
Concentration after storage in human blood ([2]; 4°C, 12 h, parallel sample 1): 4560 ng/mL
Concentration after storage in human blood ([2]; 4°C, 12 h, parallel sample 2): 4680 ng/mL
Concentration after storage in human blood ([2]; 4°C, 24 h, parallel sample 1): 4690 ng/mL
Concentration after storage in human blood ([2]; 4°C, 24 h, parallel sample 2): 5280 ng/mL
Concentration after storage in human blood ([2]; room temperature (25°C), 0 h (initial), parallel sample 1): 6890 ng/mL
Concentration after storage in human blood ([2]; room temperature (25°C), 0 h (initial), parallel sample 2): 6660 ng/mL
Concentration after storage in human blood ([2]; room temperature (25°C), 0.5 h, parallel sample 1): 6830 ng/mL
Concentration after storage in human blood ([2]; room temperature (25°C), 0.5 h, parallel sample 2): 6630 ng/mL
Concentration after storage in human blood ([2]; room temperature (25°C), 1 h, parallel sample 1): 6130 ng/mL
Concentration after storage in human blood ([2]; room temperature (25°C), 1 h, parallel sample 2): 6130 ng/mL
Concentration after storage in human blood ([2]; room temperature (25°C), 2 h, parallel sample 1): 6700 ng/mL
Concentration after storage in human blood ([2]; room temperature (25°C), 2 h, parallel sample 2): 6150 ng/mL
Concentration after storage in human blood ([2]; room temperature (25°C), 3 h, parallel sample 1): 7160 ng/mL
Concentration after storage in human blood ([2]; room temperature (25°C), 3 h, parallel sample 2): 6780 ng/mL
Concentration after storage in human blood ([2]; room temperature (25°C), 4 h, parallel sample 1): 6420 ng/mL
Concentration after storage in human blood ([2]; room temperature (25°C), 4 h, parallel sample 2): 6420 ng/mL
Concentration after storage in human blood ([2]; room temperature (25°C), 5 h, parallel sample 1): 6890 ng/mL
Concentration after storage in human blood ([2]; room temperature (25°C), 5 h, parallel sample 2): 6710 ng/mL
Concentration after storage in human blood ([2]; room temperature (25°C), 8 h, parallel sample 1): 6970 ng/mL
Concentration after storage in human blood ([2]; room temperature (25°C), 8 h, parallel sample 2): 6650 ng/mL
Concentration after storage in human blood ([2]; room temperature (25°C), 12 h, parallel sample 1): 7950 ng/mL
Concentration after storage in human blood ([2]; room temperature (25°C), 12 h, parallel sample 2): 8190 ng/mL
Concentration after storage in human blood ([2]; room temperature (25°C), 24 h, parallel sample 1): 7050 ng/mL
Concentration after storage in human blood ([2]; room temperature (25°C), 24 h, parallel sample 2): 6720 ng/mL
Stability of working solutions [3]: remained stable after storage at −70 °C for up to 7 days but not beyond 10 days
